Measured values as given in US6518307B2, “Control of microbial populations in the gastrointestinal tract of animals” (Lynntech, Inc., priority 2000, dated 2003).

How the values were obtained:
[1] = cited from earlier work
bacteria = assay: In vitro bacterial kill in the presence of interfering compounds found in poultry ingesta; format: cell-based; conditions: in the presence of potentially interfering compounds of poultry ingesta
Text: Organic compounds have been evaluated for biocidal efficacy in the upper GI tract of poultry, including D-limonene. […] Organic acids have also found utility as a drinking water biocide for gut bacteria.

Salmonella enteritidis [2] = assay: In vitro reduction of Salmonella enteritidis in the presence of autoclaved broiler feed; format: cell-based; conditions: 1 h, 37° C.
Protocol: Another study was performed to determine the bactericidal effects of the same three peracids investigated in the first study. Eleven tubes were filled with 0.5 g of autoclaved broiler feed to which 100 ul of a Salmonella enteritidis culture broth was added. Two of the tubes were additionally filled with 1.9 ml of distilled water and the remaining nine were filled with an additional 1.7 ml of H2O. The peracids were added to the nine tubes to achieve a 0.0125% of each of the three peracids and two subsequent dilutions to achieve 0.00625% and 0.003125% of each. The samples were incubated at 37° C. and vortexed. After 1 h, the samples were plated and diluted to yield a plate count of 10^4 and 10^3 cfu/ml

[3] = in water, alcohol, ether, and sulfuric acid; cited from earlier work
[4] = system: bacteria in the crops of market-age broilers; assay: Biocidal effect of a drinking water oxidant in the crops of market-age broilers; format: in vivo; conditions: dissolved in drinking water
Protocol: A variety of chemicals have been evaluated for efficacy as a drinking water-based biocide for administration to birds during the period of feed withdrawal. […] It was found, however, that the biocidal effect of this dissolved, short-lived oxidant was minimal in the crops of market-age broilers. This ineffectiveness is thought to be due primarily to the high ozone demand of the ingesta itself, which consumes the majority of the ozone and subsequently prevents delivery of sufficient ozone to the bacteria surfaces.

Salmonella enteritidis [5] = assay: Reduction of Salmonella in broiler crops, peracid in drinking water during 8 h feed withdrawal (Example 6); format: in vivo; conditions: 8 h exposure, broilers
Protocol: To determine the biocidal effect of perlactic and percitric on Salmonella in the upper GI tract (crops) of broiler chickens, peracid solutions were added to the drinkers such that the concentration of perlactic was 0.006 or 0.003% and percitric was at a 0.03% concentration. The birds were deprived of water for 8 h prior to an 8 h feed withdrawal period and allowed to drink the water for 8 h. Prior to reintroduction of the water with the test compounds, the birds were gavaged with 1 ml of 10^8 Salmonella. After the 8 h test consumption, the birds were terminated, the crops removed aseptically, stomached for 30 seconds, diluted and plated onto BGA with NO/NA.

Salmonella enteritidis [6] = assay: Reduction of Salmonella in broiler crops under different consumption pressures (Example 7); format: in vivo; conditions: 0.003125% (30 ppm) in drinking water
Protocol: Another experiment was designed to further characterize the disinfection effect of perlactic acids when different consumption pressures were placed on 8 week-old broilers. All of the birds had the feed removed 8 hours prior to slaughter. Perlactic acid was added at 0.003125% (30 ppm) to the drinking water for the last 8 hours of the study (feed withdrawal period). The first treatment group had water removed 8 hours prior to the 8 h feed withdrawal (PL 8-8-8) and the second treatment group had only feed withdrawal/perlactic treatment (PL 8—8). The last group had access to the peracid in their drinking water 12 hours prior to slaughter and the feed taken up 4 hours after that yielding a final feed withdrawal time of 8 h (PL 12-8). At the conclusion of the study, the crops were processed microbiologically similar to the methods described for FIG. 3.

Salmonella enteritidis [7] = assay: Reduction of Salmonella in crops of SE challenged broilers, perlactic acid vs lactic acid and hydrogen peroxide (Example 8); format: in vivo; conditions: 30 ppm in drinking water for 8 hours
Protocol: In the final broiler study, forty-five 8-week old broilers were divided up into 3 groups with […]. Upon feed withdrawal, all birds were gavaged with 1 ml of a 1×10^8 challenge of Salmonella enteritidis. At this time, all feed was removed and the drinking water treatments administered. […] All groups received the same withdrawal time of 8 hours. At the time of kill, the crops were aseptically collected after cervical dislocation. The crops were added to […] bags containing 10 ml of PBS. The bags were stomached for 30 sec where upon 250 μl were removed and added to 2.25 ml of PBS. […] Groups 2 and 3 were directly plated from the […] bags by taking 100 μl from the bag and spread plating it onto BGA plates. These plates were incubated for 24 hrs at 37° C. The plates were counted for CFUs and log 10 reductions. After the bags had been used for dilution purposes, 9.0 ml of tetrathionate broth was added for enrichment purposes. These bags were incubated along with the plates. 24 hours later, 1 loopful of the bag contents were streaked onto BGA plates for +/- observations.

[8] = all concentrations (0.0125%, 0.00625%, 0.003125%)
[9] = highest concentration (0.0125%)

OO [HP, hydrogen peroxide, reference compound]
loss of active ingredients ([1]; 30 to 90% solution): less than 1 % per year

CC(=O)O [acetic acid]
in vitro antibacterial effect (bacteria): excellent in vitro antibacterial capability

CC(=O)OO [peracetic acid]
biocidal effect on Salmonella enteritidis (Salmonella enteritidis [2]; [8]): poor biocide | time to lose half its strength through hydrolysis ([1]; 1% solution): 6 days | solubility [3]: freely soluble

O=[O+][O-] [Ozone]
biocidal effect in the crops [4]: minimal

C=C(C)[C@H]1CC=C(C)CC1 [D-limonene]
in vitro antibacterial effect (bacteria): excellent bacterial kills

percitric acid
biocidal effect on Salmonella enteritidis (Salmonella enteritidis [2]; diluted samples (0.00625%, 0.003125%)): not as efficient | biocidal effect on Salmonella enteritidis (Salmonella enteritidis [2]; [9]): significant biocidal effects | reduction of Salmonella in the crop (Salmonella enteritidis [5]; 0.03% in drinking water): multiple log reduction

CC(O)C(=O)OO (centres unmarked) [perlactic acid]
biocidal effect on Salmonella enteritidis (Salmonella enteritidis [2]; [8]): showed a disinfection efficacy at all concentrations | biocidal effect on Salmonella enteritidis (Salmonella enteritidis [2]; [9]): eliminated the Salmonella to levels that fell below the detection limit of this assay | effectiveness in reducing Salmonella in crops compared to FIG. 3 (Salmonella enteritidis [6]; same concentrate used 1 week later): diminished | influence of increased exposure time or water deprivation prior to feed withdrawal on biocidal effect (Salmonella enteritidis [6]; PL 8-8-8, PL 8-8, PL 12-8): does not increase the biocidal effect | log reduction of Salmonella in the crop (Salmonella enteritidis [5]; 0.003% in drinking water): two | reduction of Salmonella in the crop (Salmonella enteritidis [5]; 0.006 or 0.003% in drinking water): multiple log reduction | reduction in Salmonella in the crop as compared to the control (Salmonella enteritidis [7]): 2.71 Log10
